Results: ChEMBL document CHEMBL4308861, “Structure-based design and discovery of potent and selective lysine-specific demethylase 1 (LSD1) inhibitors” (Bioorg Med Chem Lett, 2019)

Columns and labels:
[1] = target: T1, Lysine-specific histone demethylase 1A (Homo sapiens, UniProt O60341); experiment: Inhibition of LSD1 (unknown origin)
[2] = target: T1, Lysine-specific histone demethylase 1A; experiment: Inhibition of LSD1 in human THP1 cells assessed as induction of CD11b expression after 4 days by LIVE/DEAD violet staining based FACS analysis
[3] = target: hERG (KCNH2) (Homo sapiens, UniProt Q12809); experiment: Inhibition of human ERG at 10 uM relative to control
Chain of hERG (KCNH2) (Q12809 whole entry): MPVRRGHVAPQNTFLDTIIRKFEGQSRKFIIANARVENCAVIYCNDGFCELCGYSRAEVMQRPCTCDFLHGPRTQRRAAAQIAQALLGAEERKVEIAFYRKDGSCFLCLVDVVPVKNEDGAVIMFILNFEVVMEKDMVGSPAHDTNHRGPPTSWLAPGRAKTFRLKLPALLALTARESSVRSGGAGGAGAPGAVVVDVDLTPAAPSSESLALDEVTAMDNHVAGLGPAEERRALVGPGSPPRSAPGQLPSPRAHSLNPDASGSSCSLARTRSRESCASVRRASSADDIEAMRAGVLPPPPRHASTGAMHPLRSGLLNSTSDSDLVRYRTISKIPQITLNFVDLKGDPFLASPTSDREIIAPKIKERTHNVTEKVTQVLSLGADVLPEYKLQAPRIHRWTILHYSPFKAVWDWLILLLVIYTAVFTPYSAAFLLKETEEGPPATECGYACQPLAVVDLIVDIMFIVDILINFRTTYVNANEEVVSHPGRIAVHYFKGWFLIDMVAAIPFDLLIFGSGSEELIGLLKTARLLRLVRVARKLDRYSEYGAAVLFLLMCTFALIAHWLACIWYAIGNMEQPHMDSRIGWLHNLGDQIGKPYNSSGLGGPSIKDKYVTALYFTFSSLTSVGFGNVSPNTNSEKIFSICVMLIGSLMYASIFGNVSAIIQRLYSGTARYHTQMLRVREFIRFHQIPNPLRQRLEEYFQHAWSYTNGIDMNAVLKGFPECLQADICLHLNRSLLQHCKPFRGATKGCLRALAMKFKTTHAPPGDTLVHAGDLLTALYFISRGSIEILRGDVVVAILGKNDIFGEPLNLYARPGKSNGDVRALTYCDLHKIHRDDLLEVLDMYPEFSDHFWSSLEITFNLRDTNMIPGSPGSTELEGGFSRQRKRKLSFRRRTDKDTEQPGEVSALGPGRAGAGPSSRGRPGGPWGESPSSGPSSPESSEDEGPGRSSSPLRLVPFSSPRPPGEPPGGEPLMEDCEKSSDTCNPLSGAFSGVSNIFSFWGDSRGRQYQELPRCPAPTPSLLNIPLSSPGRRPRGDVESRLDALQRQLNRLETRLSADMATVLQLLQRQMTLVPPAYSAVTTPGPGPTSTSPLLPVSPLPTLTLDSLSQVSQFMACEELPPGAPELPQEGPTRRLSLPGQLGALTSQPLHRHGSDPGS

[4] = AUC (0 to 6 hrs) in CD-1 mouse at 10 mg/kg, po; type: ADME, organism-based; design: dose 10 mg/kg, time < 6 hr, route oral; settings: in vivo
[5] = target: T2, Amine oxidase [flavin-containing] A (Homo sapiens, UniProt P21397); experiment: Inhibition of MAOA (unknown origin) at >20 uM
T2 sequence (P21397 whole entry): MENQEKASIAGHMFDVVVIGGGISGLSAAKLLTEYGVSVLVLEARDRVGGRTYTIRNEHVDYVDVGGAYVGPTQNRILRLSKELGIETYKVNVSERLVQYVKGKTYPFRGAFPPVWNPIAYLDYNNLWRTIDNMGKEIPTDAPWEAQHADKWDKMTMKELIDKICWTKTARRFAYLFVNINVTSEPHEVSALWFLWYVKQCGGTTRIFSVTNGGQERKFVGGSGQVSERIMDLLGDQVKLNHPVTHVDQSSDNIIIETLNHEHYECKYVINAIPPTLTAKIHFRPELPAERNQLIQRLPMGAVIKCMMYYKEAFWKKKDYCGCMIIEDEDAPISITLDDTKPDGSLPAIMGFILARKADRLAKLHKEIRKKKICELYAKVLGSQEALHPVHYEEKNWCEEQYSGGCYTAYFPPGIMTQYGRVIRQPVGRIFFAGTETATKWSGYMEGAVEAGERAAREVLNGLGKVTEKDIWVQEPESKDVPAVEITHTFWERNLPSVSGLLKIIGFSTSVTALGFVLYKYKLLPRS

[6] = target: T3, Amine oxidase [flavin-containing] B (Homo sapiens, UniProt P27338); experiment: Inhibition of MAOB (unknown origin) at >20 uM
T3 sequence (P27338 whole entry): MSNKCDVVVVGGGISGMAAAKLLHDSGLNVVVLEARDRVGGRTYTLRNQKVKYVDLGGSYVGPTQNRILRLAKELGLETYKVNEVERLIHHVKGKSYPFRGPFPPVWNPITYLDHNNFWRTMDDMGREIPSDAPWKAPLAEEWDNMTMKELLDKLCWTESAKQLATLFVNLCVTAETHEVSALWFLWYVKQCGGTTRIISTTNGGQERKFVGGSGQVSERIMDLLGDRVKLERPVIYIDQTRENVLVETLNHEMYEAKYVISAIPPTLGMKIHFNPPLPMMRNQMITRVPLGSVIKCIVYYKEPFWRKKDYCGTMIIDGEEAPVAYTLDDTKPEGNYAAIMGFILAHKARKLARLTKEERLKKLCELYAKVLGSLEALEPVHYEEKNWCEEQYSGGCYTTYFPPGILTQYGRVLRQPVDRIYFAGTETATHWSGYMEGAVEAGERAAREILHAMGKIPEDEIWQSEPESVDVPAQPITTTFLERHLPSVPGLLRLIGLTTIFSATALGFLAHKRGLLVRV

| Structure (SMILES) | IC50 [1] | EC50 [2] | AUC(0-t) at 6 h [4] | inhibition (INH) [5] | inhibition (INH) [6] | inhibition at 10 µM [3] |
| --- | --- | --- | --- | --- | --- | --- |
| Cc1ccc(-c2ncc(OC[C@@H]3CCNC3)cc2-c2ccc(C#N)cc2)cc1 | 10 nM | 62 nM | – | – | – | 90% |
| COc1ccc(-n2c(-c3ccc(C#N)c(F)c3)nc(C(=O)N3CCC[C@@H](N)C3)c2C)cc1F | – | – | – | – | – | 30% |
| CN[C@H]1CCN(C(=O)c2nc(-c3ccc(C#N)c(F)c3)n(-c3ccc4nn(C)c(Cl)c4c3)c2C)C1 | – | – | 640 ng·h/mL | Active | Active | 24% |
| COc1ccc(-n2c(-c3ccc(C#N)c(F)c3)nc(C(=O)N3CCC[C@@H](N)C3)c2C)cc1 | – | – | – | – | – | 69% |
| COc1ccc(-n2c(-c3ccc(C#N)c(F)c3)nc(C(=O)N[C@@H]3CCCNC3)c2C)cc1F | – | – | – | – | – | 65% |
| Cc1c(C(=O)N2CC[C@H](N(C)C)C2)nc(-c2ccc(C#N)c(F)c2)n1-c1cc2cn(C)nc2cc1F | – | – | 940 ng·h/mL | Active | Active | 44% |
| COc1ccc(-n2c(-c3ccc(C#N)c(F)c3)nc(C(=O)N3CC[C@H](N)C3)c2C)cc1F | – | – | – | – | – | 41% |
| CN[C@H]1CCN(C(=O)c2nc(-c3ccc(C#N)c(F)c3)n(-c3cc4cn(C)nc4cc3F)c2C)C1 | – | – | – | Active | Active | 22% |
| Cc1c(C(=O)N2CC[C@H](N(C)C)C2)nc(-c2ccc(C#N)c(F)c2)n1-c1cc(F)c2nn(C)cc2c1 | – | – | 660 ng·h/mL | Active | Active | 17% |
| CN[C@@H]1CCCN(C(=O)c2nc(-c3ccc(C#N)c(F)c3)n(-c3ccc4nn(C)c(Cl)c4c3)c2C)C1 | – | – | 410 ng·h/mL | Active | Active | 34% |
| Cc1ccc(-n2c(-c3ccc(C#N)cc3)nc(C(=O)N3CCC[C@@H](N)C3)c2C)cc1 | – | – | – | – | – | 94% |

Now from value to molecule, other results behind:

| IC50 [1] | EC50 [2] | AUC(0-t) at 6 h [4] | inhibition (INH) [5] | inhibition (INH) [6] | Structure (SMILES) | inhibition at 10 µM [3] |
| --- | --- | --- | --- | --- | --- | --- |
| – | – | 106 ng·h/mL | – | – | Cc1c(C(=O)N2CCC[C@@H](N)C2)nc(-c2ccc(C#N)c(F)c2)n1-c1ccc2c(cnn2C)c1 | 52% |
| – | – | 100 ng·h/mL | Active | Active | Cc1c(C(=O)N2CCC[C@@H](N)C2)nc(-c2ccc(C#N)c(F)c2)n1-c1ccc2nn(C)c(Cl)c2c1 | 28% |
| – | – | 760 ng·h/mL | Active | Active | Cc1c(C(=O)N2CC[C@H](N(C)C)C2)nc(-c2ccc(C#N)c(F)c2)n1-c1ccc2nn(C)cc2c1 | 30% |
| – | – | 25 ng·h/mL | – | – | Cc1c(C(=O)N2CCC[C@@H](N)C2)nc(-c2ccc(C#N)c(F)c2)n1-c1ccc2nn(C)cc2c1 | < 10% |
| – | – | 80 ng·h/mL | Active | Active | Cc1c(C(=O)N2CC[C@H](N)C2)nc(-c2ccc(C#N)c(F)c2)n1-c1ccc2nn(C)cc2c1 | 12% |
